From ChEMBL document CHEMBL2069188, “Structural requirements for the antitubercular quaternized triflupromazine pharmacophore” (Bioorg Med Chem Lett, 2012)
Values after ≈ are worked out from the molar mass of the structure shown.

Tests used:
[1] = system: Mycobacterium tuberculosis; experiment: Antitubercular activity against Mycobacterium tuberculosis H37Rv by microplate alamar blue assay; assay type: functional
[2] = system: Vero; experiment: Cytotoxicity against african green monkey Vero cells […] after 3 days; assay type: cell-based; conditions: Chlorocebus sabaeus, 72 h
[3] = Selectivity index, ratio of IC50 for african green monkey Vero cells to MIC for Mycobacterium tuberculosis H37Rv; assay type: functional

Row | SMILES | MIC90 [1] [µM] | IC50 [2] [µM] | Selectivity Index [3]
1 | C[N+](C)(CCCN1c2ccccc2Sc2ccc(C(F)(F)F)cc21)Cc1ccc(Br)cc1.[Br-] | 6 | > 128 | >21
2 | C[N+](C)(CCCN1c2ccccc2Sc2ccc(C(F)(F)F)cc21)Cc1ccc(I)cc1.[Br-] | 5.9 | 92.7 | >16
3 | FC(F)(F)c1ccc2c(c1)N(Cc1cn(Cc3ccc(Cl)cc3)nn1)c1ccccc1S2 | > 100 | > 128 | –
4 | CCCC[N+](C)(C)CCCN1c2ccccc2Sc2ccc(C(F)(F)F)cc21 | 53.2 | – | –
5 | C#CC[N+](C)(C)CCCN1c2ccccc2Sc2ccc(C(F)(F)F)cc21 | 121 | – | –
6 | C[N+](C)(CC#N)CCCN1c2ccccc2Sc2ccc(C(F)(F)F)cc21 | > 128 | – | –
7 | C=CC[N+](C)(C)CCCN1c2ccccc2Sc2ccc(C(F)(F)F)cc21 | > 128 | – | –
8 | C=CC[N+](C)(C)CCCN1c2ccccc2Sc2ccccc21 | > 128 | – | –
9 | C#CC[N+](C)(C)CCCN1c2ccccc2Sc2ccccc21 | > 128 | – | –
10 | C[N+](C)(CCCN1c2ccccc2Sc2ccc(C(F)(F)F)cc21)Cc1ccc(F)cc1.[Cl-] | 11.9 | > 128 | >11
11 | C[N+](C)(CCCN1c2ccccc2Sc2ccc(C(F)(F)F)cc21)Cc1ccc(Cl)cc1.[Cl-] | 9 | > 128 | >14
12 | CO[C@H]1/C=C/O[C@@]2(C)Oc3c(C)c(O)c4c(O)c(c(/C=N/N5CCN(C)CC5)c(O)c4c3C2=O)NC(=O)/C(C)=C\C=C\[C@H](C)[C@H](O)[C@@H](C)[C@@H](O)[C@@H](C)[C@H](OC(C)=O)[C@@H]1C [RIFAMPIN] | 0.09 (≈ 0.0741 µg/mL) | > 100 | >909
